Drawing on ChEMBL document CHEMBL3769311, “The natural flavone fukugetin as a mixed-type inhibitor for human tissue kallikreins” (Bioorg Med Chem Lett, 2016), this text covers IC50 and Ki for one compound.

Broadly, the IC50 is the point on the concentration scale where inhibition reaches its midpoint. For orientation: Ki means a dissociation constant, usually derived from enzyme kinetics or from competition with a known ligand. A high value points to a looser hold on the target.

One assay addresses Kallikrein-6 (Homo sapiens, UniProt Q92876). As to the kind of experiment: Inhibition of human tissue kallikrein-6 expressed in baculovirus infected insect cells using Abz-KLRSSQ-EDDnp as substrate preincubated for 10 mins followed by substrate addition by FRET assay.
In assay [1] the target is T1, Kallikrein-1 (Homo sapiens, UniProt P06870). The assay is described as follows: Mixed-type inhibition of human tissue kallikrein-1 expressed in baculovirus infected insect cells using Abz-KLRSSQ-EDDnp as substrate preincubated for 10 mins followed by substrate addition by Lineweaver-Burk plot analysis.
For assay [2], the target named is T2, Kallikrein-2 (Homo sapiens, UniProt P20151).
T2 sequence (P20151 whole entry): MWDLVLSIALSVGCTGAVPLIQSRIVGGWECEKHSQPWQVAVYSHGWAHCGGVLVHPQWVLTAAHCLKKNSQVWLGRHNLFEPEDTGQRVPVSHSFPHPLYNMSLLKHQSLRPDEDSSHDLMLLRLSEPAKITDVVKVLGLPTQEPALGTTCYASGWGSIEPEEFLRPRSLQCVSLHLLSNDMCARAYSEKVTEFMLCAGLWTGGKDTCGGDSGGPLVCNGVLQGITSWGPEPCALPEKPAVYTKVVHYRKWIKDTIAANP
As to the kind of experiment: Inhibition of human tissue kallikrein-2 expressed in baculovirus infected insect cells using Abz-KLRSSQ-EDDnp as substrate preincubated for 10 mins followed by substrate addition by FRET assay.

The next assay concerns the target T3, Kallikrein-5 (Homo sapiens, UniProt Q9Y337).
T3 sequence (Q9Y337 whole entry): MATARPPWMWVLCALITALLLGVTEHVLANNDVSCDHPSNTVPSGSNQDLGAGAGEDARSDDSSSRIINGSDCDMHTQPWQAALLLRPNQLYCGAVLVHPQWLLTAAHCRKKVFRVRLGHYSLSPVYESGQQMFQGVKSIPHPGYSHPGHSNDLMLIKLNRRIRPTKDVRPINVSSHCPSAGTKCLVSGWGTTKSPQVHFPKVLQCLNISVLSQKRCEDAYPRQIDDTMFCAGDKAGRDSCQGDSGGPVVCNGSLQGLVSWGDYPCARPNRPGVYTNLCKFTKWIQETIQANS
The assay is described as follows: Inhibition of human tissue kallikrein-5 expressed in baculovirus infected insect cells using Abz-KLRSSQ-EDDnp as substrate preincubated for 10 mins followed by substrate addition by FRET assay.

The target in another assay is Kallikrein-7 (Homo sapiens, UniProt P49862). As to the kind of experiment: Inhibition of human tissue kallikrein-7 expressed in baculovirus infected insect cells using Abz-KLYSSQ-EDDnp as substrate preincubated for 10 mins followed by substrate addition by FRET assay.
For assay [3], the target named is T4, Prostate-specific antigen (Homo sapiens, UniProt P07288).
T4 sequence (P07288 whole entry): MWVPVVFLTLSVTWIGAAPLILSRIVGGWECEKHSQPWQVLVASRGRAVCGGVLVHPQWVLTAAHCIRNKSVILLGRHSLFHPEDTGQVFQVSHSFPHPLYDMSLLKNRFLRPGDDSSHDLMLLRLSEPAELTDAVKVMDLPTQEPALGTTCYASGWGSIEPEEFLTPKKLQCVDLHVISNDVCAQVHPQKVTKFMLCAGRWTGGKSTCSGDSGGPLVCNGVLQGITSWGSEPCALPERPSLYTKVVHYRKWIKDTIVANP
The assay is described as follows: Inhibition of human tissue kallikrein-3 expressed in baculovirus infected insect cells using Abz-KLYSSQ-EDDnp as substrate preincubated for 10 mins followed by substrate addition by FRET assay.

For assay [4], the target named is T2, Kallikrein-2. As to the kind of experiment: Mixed-type inhibition of human tissue kallikrein-2 expressed in baculovirus infected insect cells using Abz-KLRSSQ-EDDnp as substrate preincubated for 10 mins followed by substrate addition by Lineweaver-Burk plot analysis.
Assay [5] has as its target T1, Kallikrein-1. The assay is described as follows: Inhibition of human tissue kallikrein-1 expressed in baculovirus infected insect cells using Abz-KLRSSQ-EDDnp as substrate preincubated for 10 mins followed by substrate addition by FRET assay.

T1 sequence (P06870 whole entry): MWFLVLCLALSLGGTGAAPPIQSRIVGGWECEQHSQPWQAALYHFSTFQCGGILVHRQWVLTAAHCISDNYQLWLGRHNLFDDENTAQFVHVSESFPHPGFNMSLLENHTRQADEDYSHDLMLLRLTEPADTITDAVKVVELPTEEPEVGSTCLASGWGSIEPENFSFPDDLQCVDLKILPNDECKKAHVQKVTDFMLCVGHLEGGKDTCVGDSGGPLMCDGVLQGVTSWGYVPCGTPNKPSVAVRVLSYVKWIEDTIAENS
Kallikrein-7, sequence (P49862 whole entry): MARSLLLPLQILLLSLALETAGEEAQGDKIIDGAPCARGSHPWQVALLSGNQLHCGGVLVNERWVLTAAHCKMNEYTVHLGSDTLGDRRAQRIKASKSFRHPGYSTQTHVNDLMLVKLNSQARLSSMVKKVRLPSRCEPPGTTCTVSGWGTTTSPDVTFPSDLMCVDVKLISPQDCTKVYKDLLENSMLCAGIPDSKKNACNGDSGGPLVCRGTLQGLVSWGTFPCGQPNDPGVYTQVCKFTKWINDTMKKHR

For the compound `O=C1CC(c2ccc(O)c(O)c2)Oc2c1c(O)cc(O)c2[C@@H]1C(=O)c2c(O)cc(O)cc2O[C@H]1c1ccc(O)cc1` (stereo partly drawn) [FUKUGETIN], the IC50 came out at 13.5 µM on Kallikrein-6; 3.2 µM at Kallikrein-2 [2]; 12.5 µM against Kallikrein-5; 15 µM at Kallikrein-7; 13 µM in assay [3]; 5.7 µM against Kallikrein-1 [5]. Moreover, the Ki on Kallikrein-1 [1] was 3.6 µM; on Kallikrein-2 [4], 1.6 µM.
